US4629627A, “Antiviral substance and the manufacturing method thereof” (priority 1978, dated 1986)

Columns and labels:
[1] = test system: liver cancer in rats; experiment: Experiment 3: depression of liver cancer induced by 3'-Me-DAB in rats; type: in vivo, Wister male rats
Text: The present inventor asked Prof. Nobuhiko Kanno, Biological Laboratory, Dept. of Pharmacology, Toyama Medical and Pharmacologival University, to test the activity of the present antiviral substance to depress the liver cancer in rats on pathogens of viruses.
1. Test animals: Wister male rats of 4 weeks of age were fed for 5 days as usual and tested.
2. Carcinogenic substance: 3'-methyl-4-dimethyl amino azobenzene (3'-Me-DAB) [drawing 1]
(1) Control group: standard food
(2) L group: standard food+L
(3) L+DAB group 0.06% 3'-Me-DAB containing food+L
(4) DAB group 0.06% 3'-Me-DAB containing food
Note: L: a frozen dry powder of the extract of the nutrient medium and tissue-medium of Lentinus edodes DAB: 3'-Me-DAB
4. Quantity and the method of giving the freeze-dried powder of the extract of the nutrient medium and tissue-medium of Lentinus edodes […]
The freeze-dried powder of the nutrient medium and tissue-medium of Lentinus edodes was dissolved in physiological salt water, and given intraperitoneally; the same dose of physiological salt water was similarly given to the control group.

[2] = test system: liver cancer in rats; conditions: rat's liver; cited from earlier work

For Cc1cccc(N=Nc2ccc(N(C)C)cc2)c1 [3'-Me-DAB, 3'-methyl-4-dimethyl amino azobenzene], the “liver finding at autopsy” value ([1]; dissection, after 14 and 18 weeks) was “fine yellowish white particles which seemed to be cancerous tissue were seen all over the liver”, the “microscopic findings of the liver tissue” value ([1]; hematoxin-eosin) was “severe disarrangement of cells and the glandular structure specific to liver cancer (adeno carcinoma)” and the depilation ([1]; microscopic observation, within about 5 and 15 weeks) was “depilation appeared on the abdomen in some a rats”. The carcinogenic property [2] was “specific and strong carcinogenic property”.
